Source: publication PMC10641814 (Journal of Medicinal Chemistry, 2023)

Columns and labels:
h5-HT6R = molecular target: T1, h5-HT6R (Homo sapiens, UniProt P50406); assay: 5-HT6R antagonist activity at Gs signaling, cAMP in 1321N1 cells (5-CT stimulated); format: cell-based; details: 1321N1 cells expressing h5-HT6R; read-out: EC50 (agonist, cAMP production)
T1 construct: expressed in transfected cells

[1] = test system: SCOP-induced cognitive impairment in rats; assay: Scopolamine-induced amnesia in NOR test in rats; format: in vivo, rat; details: SCOP 1.25 mg/kg ip, PZ-1922 0.3, 1, 3 mg/kg ip, donepezil 1 and 3 mg/kg ip
Procedure: Rats were allowed to acclimate for at least 7 days before the beginning of the experimental procedure. During this week, the animals were handled at least 3 times. Behavioral testing was carried out during the light phase of the light/dark cycle. The experiments were conducted in accordance with the NIH Guide for the Care and Use of Laboratory Animals and were approved by the Ethics Committee for Animal Experiments, Maj Institute of Pharmacology. At least 1 h before the beginning of the experiments, rats were transferred to the experimental room for acclimation. Rats were tested in a dimly lit (25 lx) “open field” apparatus made of dull gray plastic (66 × 56 × 30 cm). After each measurement, the floor was cleaned and dried. […] For the scopolamine-induced memory impairment paradigm, 1 h ITI was chosen. During the first trial (familiarization T1), two identical objects (A1 and A2) were presented in opposite corners, approximately 10 cm from the walls of the open field. In the second trial (recognition, T2), one of the objects was replaced by a novel one (A = familiar and B = novel). […] Exploration time of the objects and the distance traveled were measured using the Any-maze video tracking system. Based on exploration time (E) of two objects during T2, the discrimination index (DI) was calculated according to the formula DI = (EB – EA)/(EA + AB).

[2] = molecular target: the molecule itself; assay: cryo-EM structure; purified receptor in detergent C12E9, pentameric SEC fractions concentrated to 10 mg/mL, incubated 5 min with PZ-1922 or PZ-1939 before freezing

T1 sequence (P50406 whole entry): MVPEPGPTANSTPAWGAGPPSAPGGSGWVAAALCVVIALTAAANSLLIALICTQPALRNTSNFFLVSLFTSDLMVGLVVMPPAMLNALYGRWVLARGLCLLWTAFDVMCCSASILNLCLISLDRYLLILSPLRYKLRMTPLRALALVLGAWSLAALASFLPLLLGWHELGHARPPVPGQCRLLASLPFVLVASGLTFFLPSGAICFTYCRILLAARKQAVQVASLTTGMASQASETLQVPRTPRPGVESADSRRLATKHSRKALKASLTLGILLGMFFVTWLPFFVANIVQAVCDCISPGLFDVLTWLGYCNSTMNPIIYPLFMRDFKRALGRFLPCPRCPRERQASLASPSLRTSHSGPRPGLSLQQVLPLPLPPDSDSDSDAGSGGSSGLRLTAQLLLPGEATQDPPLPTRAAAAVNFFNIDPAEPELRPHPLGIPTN

NCCc1c[nH]c2ccc(C(N)=O)cc12 [Compound 5-CT, 5-carboxamidotryptamine]
EC50 (h5-HT6R): 0.013 µM

COc1cc2c(cc1OC)C(=O)C(CC1CCN(Cc3ccccc3)CC1)C2 (stereo not drawn) [donepezil]
effect on SCOP-induced short-term memory deficits (discrimination index) in NOR test [1]: reduced the memory deficits induced by SCOP

B1: mouse 5-HT3A receptor (receptor, UniProt P23979 24-489, looked up)
chain: SRRRATQARDTTQPALLRLSDHLLANYKKGVRPVRDWRKPTTVSIDVIMYAILNVDEKNQVLTTYIWYRQYWTDEFLQWTPEDFDNVTKLSIPTDSIWVPDILINEFVDVGKSPNIPYVYVHHRGEVQNYKPLQLVTACSLDIYNFPFDVQNCSLTFTSWLHTIQDINITLWRSPEEVRSDKSIFINQGEWELLEVFPQFKEFSIDISNSYAEMKFYVIIRRRPLFYAVSLLLPSIFLMVVDIVGFCLPPDSGERVSFKITLLLGYSVFLIIVSDTLPATAIGTPLIGVYFVVCMALLVISLAETIFIVRLVHKQDLQRPVPDWLRHLVLDRIAWILCLGEQPMAHRPPATFQANKTDDCSGSDLLPAMGNHCSHVGGPQDLEKTPRGRGSPLPPPREASLAVRGLLQELSSIRHFLEKRDEMREVARDWLRVGYVLDRLLFRIYLLAVLAYSITLVTLWSIWHYS
notes: 5-hydroxytryptamine (serotonin) receptor 3A, mouse; called full-length in the discussion; the construct is only said to be 'as previously described with some minor modifications'; The intracellular domain is only partly resolved; also called m5-HT3R; m5HT3R
stoichiometry N [2]: 5
